Test results as given in patent US11129840B2, “Methods for identifying novel dosing regimens” (Zavante Therapeutics, Inc., priority 2017, dated 2021).
In brackets after ≈: the same amount, converted by molar mass. Read-outs that look alike come from different tables or passages of the source. Marks after values point to notes of the source that are not given here.

What was measured:
[1] = system: Acinetobacter-baumannii-calcoaceticus complex; test: Reference agar dilution MIC, SENTRY US isolates; format: cell-based
Protocol: (§1) FOS was tested against over 1,400 GN and 800 GP clinical isolates collected in US medical centers as part of the SENTRY Antimicrobial Surveillance Program (96% of isolates from 2015) and a selection of 29 GN and 20 GP anaerobes. Isolates were susceptibility (S) tested against FOS and comparators by reference agar dilution (25 μg/mL glucose-6-phosphate supplementation) using existing FDA breakpoints of the oral formulation for comparative assessments.

C. freundii complex = test: Reference agar dilution MIC, SENTRY US isolates; format: cell-based; details: Citrobacter freundii; randomly selected
Protocol: as §1

Citrobacter koseri = test: Reference agar dilution MIC, SENTRY US isolates; format: cell-based; details: randomly selected
Protocol: as §1

E. faecalis = test: Reference agar dilution MIC, SENTRY US isolates; format: cell-based; details: FDA oral breakpoints
Protocol: as §1

E. faecium = test: Reference agar dilution MIC, SENTRY US isolates; format: cell-based; details: FDA oral breakpoints
Protocol: as §1

Enterobacter aerogenes = test: Reference agar dilution MIC, SENTRY US isolates; format: cell-based; details: Klebsiella aerogenes; randomly selected
Protocol: as §1

Escherichia coli = test: Reference agar dilution MIC, SENTRY US isolates; format: cell-based; details: randomly selected
Protocol: as §1

Klebsiella pneumoniae = test: Reference agar dilution MIC, SENTRY US isolates; format: cell-based
Protocol: as §1

Proteus mirabilis = test: Reference agar dilution MIC, SENTRY US isolates; format: cell-based; details: randomly selected
Protocol: as §1

Pseudomonas aeruginosa = test: Reference agar dilution MIC, SENTRY US isolates; format: cell-based
Protocol: as §1

S. agalactiae = test: Reference agar dilution MIC, SENTRY US isolates; format: cell-based; details: Streptococcus agalactiae
Protocol: as §1

S. saprophyticus = test: Reference agar dilution MIC, SENTRY US isolates; format: cell-based; details: Staphylococcus saprophyticus
Protocol: as §1

[2] = system: coagulase-negative staphylococci (CoNS) excluding S. saprophyticus; test: Reference agar dilution MIC, SENTRY US isolates; format: cell-based
Protocol: as §1

[3] = system: EC with an ESBL phenotype; test: Reference agar dilution MIC, resistant SENTRY isolates; format: cell-based; details: Escherichia coli
Protocol: (§2) Utilizing existing interpretative criteria for the marketed oral agent (dosed at 3 g) for analysis purposes, FOS susceptibility (S) was determined for recent resistant GN and GP clinical isolates including vancomycin-resistant Enterococcus faecium (VREM) and E. faecalis (VREF); methicillin-resistant Staphylococcus aureus (MRSA) and MR coagulase negative staphylococci (MR-CoNS), Escherichia coli (EC) and Klebsiella pneumoniae (KPN) containing extended spectrum beta-lactamases (ESBL) or were carbapenem resistant (CR); and), Pseudomonas aeruginosa (PSA) non-susceptible to ceftazidime (CAZ-NS) or to meropenem (MER-NS). […] Isolates were collected from hospitalized patients in the US as a part of the SENTRY surveillance program, 2013-2015.

[4] = system: MR coagulase negative staphylococci (MR-CoNS); test: as above; format: cell-based
Protocol: as §2

[5] = system: methicillin-resistant Staphylococcus aureus (MRSA); test: as above; format: cell-based
Protocol: as §2

[6] = system: vancomycin-resistant Enterococcus faecium (VREM); test: as above; format: cell-based
Protocol: as §2

EC that were CR = test: as above; format: cell-based, Escherichia coli
Protocol: as §2

[7] = system: 5 EC (4 ESBL), 3 KPN (2 CR), and 2 PSA; test: MIC by agar dilution, isolates of the thigh infection study; format: cell-based; details: 10 isolates
Protocol: (§3) 5 EC (4 ESBL), 3 KPN (2 CR), and 2 PSA were used. MICs were determined by agar dilution. […] PK/PD index determination was performed using a dose fractionation (DF) study design. […] The dose-response data was analyzed using the Emax Hill equation.

EC, KPN and PSA isolates = test: Thigh infection, dose fractionation and efficacy against all 10 isolates; format: in vivo, mice; details: 24 h; commonly in isolates with lower MICs
Protocol: as §3

EC = test: Thigh infection, static dose and PD targets; format: in vivo, mice
Protocol: as §3

KPN = test: Thigh infection, static dose and PD targets; format: in vivo, mice
Protocol: as §3

PSA = test: Thigh infection, static dose and PD targets; format: in vivo, mice
Protocol: as §3

Enterobacteriaceae [8] = test: Neutropenic murine-thigh infection model, AUC:MIC ratio targets; format: in vivo
[9] = system: Carbapenemase-producing Enterobacteriaceae (CPE); test: FOF MIC by ETEST; format: cell-based; details: 37 CPE incl. 11 harboring fos(A)
Protocol: Isolates (n=37) harboring KPC, NDM, OXA, or VIM carbapenemases, with a majority also producing extended-spectrum β-lactamases, were acquired from the FDA-CDC Antimicrobial Resistant Bank. MICs for agents tested in combination with FOF were determined by broth microdilution; FOF MIC was determined by ETEST® antibiotic gradient diffusion strip prior to conducting synergy assessments between FOF and aztreonam (ATM), ceftazidime (CAZ), ceftazidime/avibactam (CZA), cefepime, ceftolozane/tazobactam (C/T), meropenem, piperacillin/tazobactam, and tobramycin (TOB). Synergistic potential for each combination was determined by crossing a FOF ETEST® strip with each of the aforementioned antibiotic strips at a 90° angle at their respective MICs with subsequent calculation of the fractional inhibitory concentration (FIC). […] Only organisms that were non-susceptible to the second drug were assessed for synergy.

Enterobacteriaceae [10] = test: MIC distribution for 1,091 Enterobacteriaceae isolates from USA; format: cell-based

**Q.** For C[C@@H]1O[C@@H]1P(=O)(O)O [FOS, fosfomycin], which MIC50 [1] is on record?
**A.** 128 µg/mL (≈ 927 µM)

**Q.** What about the MIC90 [1] of the same molecule?
**A.** 256 µg/mL (≈ 1850 µM)

**Q.** What about the MIC50 (C. freundii complex) of the same molecule?
**A.** 0.5 µg/mL (≈ 3.62 µM)

**Q.** And the MIC90 (C. freundii complex)?
**A.** 1 µg/mL (≈ 7.24 µM)

**Q.** And the MIC50 (Citrobacter koseri)?
**A.** 1 µg/mL (≈ 7.24 µM)

**Q.** What about the MIC90 (Citrobacter koseri) of the same molecule?
**A.** 1 µg/mL (≈ 7.24 µM)

**Q.** And the “% S” value (E. faecalis)?
**A.** 99.0%

**Q.** And the “% intermediate” value (E. faecalis)?
**A.** 1.0%

**Q.** What about the “% S” value (E. faecium) of the same molecule?
**A.** 79.8%

**Q.** What about the “% intermediate” value (E. faecium) of the same molecule?
**A.** 19.2%

**Q.** And the MIC50 (Enterobacter aerogenes)?
**A.** 8 µg/mL (≈ 57.9 µM)

**Q.** And the MIC90 (Enterobacter aerogenes)?
**A.** 16 µg/mL (≈ 116 µM)

**Q.** What about the MIC50 (Escherichia coli; Escherichia coli) of the same molecule?
**A.** 0.5 µg/mL (≈ 3.62 µM)

**Q.** What about the MIC90 (Escherichia coli; Escherichia coli) of the same molecule?
**A.** 1 µg/mL (≈ 7.24 µM)

**Q.** What about the “% S to FOS” value (Escherichia coli; FDA oral breakpoints) of the same molecule?
**A.** 100.0%

**Q.** And the “% of isolates ≤64 μg/mL” value (Klebsiella pneumoniae)?
**A.** 97.0%

**Q.** And the MIC50 (Klebsiella pneumoniae; Klebsiella pneumoniae)?
**A.** 4 µg/mL (≈ 29 µM)

**Q.** What about the MIC90 (Klebsiella pneumoniae; Klebsiella pneumoniae) of the same molecule?
**A.** 16 µg/mL (≈ 116 µM)

**Q.** And the MIC50 (Proteus mirabilis)?
**A.** 1 µg/mL (≈ 7.24 µM)

**Q.** What about the MIC90 (Proteus mirabilis) of the same molecule?
**A.** 8 µg/mL (≈ 57.9 µM)

**Q.** And the MIC50 (Pseudomonas aeruginosa)?
**A.** 64 µg/mL (≈ 464 µM)

**Q.** What about the MIC90 (Pseudomonas aeruginosa) of the same molecule?
**A.** 128 µg/mL (≈ 927 µM)

**Q.** And the MIC50 (S. agalactiae)?
**A.** 8 µg/mL (≈ 57.9 µM)

**Q.** What about the MIC90 (S. agalactiae) of the same molecule?
**A.** 64 µg/mL (≈ 464 µM)

**Q.** What about the MIC50 (S. saprophyticus) of the same molecule?
**A.** 128 µg/mL (≈ 927 µM)

**Q.** And the MIC90 (S. saprophyticus)?
**A.** > 256 µg/mL

**Q.** And the MIC50 [2]?
**A.** 8 µg/mL (≈ 57.9 µM)

**Q.** What about the MIC90 ([2]; Staphylococcus saprophyticus) of the same molecule?
**A.** 64 µg/mL (≈ 464 µM)

**Q.** And the MIC [3]?
**A.** > 256 µg/mL

**Q.** What about the MIC50 ([3]; 49 EC) of the same molecule?
**A.** 0.5 µg/mL (≈ 3.62 µM)

**Q.** What about the MIC90 ([3]; 49 EC) of the same molecule?
**A.** 4 µg/mL (≈ 29 µM)

**Q.** And the MIC ([3]; remaining isolates, read-out: MIC values)?
**A.** ≤ 32 µg/mL

**Q.** What about the MIC ([4]; Staphylococcus capitis) of the same molecule?
**A.** 128 µg/mL (≈ 927 µM)

**Q.** What about the MIC ([4]; Staphylococcus hominis) of the same molecule?
**A.** > 256 µg/mL

**Q.** What about the “No. of isolates with FOS MIC≤64 μg/mL” value ([4]; of 153 MR-CoNS) of the same molecule?
**A.** 72

**Q.** And the MIC50 ([5]; 101 MRSA)?
**A.** 4 µg/mL (≈ 29 µM)

**Q.** And the MIC90 ([5]; 101 MRSA)?
**A.** 8 µg/mL (≈ 57.9 µM)

**Q.** And the MIC ([5]; all 101 MRSA)?
**A.** ≤ 64 µg/mL

**Q.** What about the MIC90 ([6]; Enterococcus faecium) of the same molecule?
**A.** 128 µg/mL (≈ 927 µM)

**Q.** And the MIC50 ([6]; Enterococcus faecium, 81 VREM)?
**A.** 64 µg/mL (≈ 464 µM)

**Q.** And the “No. of isolates with an MIC 64 μg/mL” value ([6]; of 81 VREM)?
**A.** 63

**Q.** What about the MIC range (EC that were CR; 9 of 11 isolates) of the same molecule?
**A.** 0.5 to 32 µg/mL

**Q.** What about the MIC (EC that were CR; Escherichia coli) of the same molecule?
**A.** > 256 µg/mL

**Q.** And the MIC range [7]?
**A.** 1 to 16 µg/mL

**Q.** What about the Maximal cidal activity (EC, KPN and PSA isolates) of the same molecule?
**A.** 2-3 log kill

**Q.** And the “Static Dose” value (EC; mean)?
**A.** 847 mg/kg/24 h

**Q.** What about the “Stasis AUC/MIC” value (EC; median target) of the same molecule?
**A.** 19.3*

**Q.** And the “Stasis T > MIC” value (EC; median target)?
**A.** 37.7* %

**Q.** What about the “Static Dose” value (KPN; mean) of the same molecule?
**A.** 1667 mg/kg/24 h

**Q.** What about the “Stasis AUC/MIC” value (KPN; median target) of the same molecule?
**A.** 11.1*

**Q.** And the “Stasis T > MIC” value (KPN; median target)?
**A.** 26.5* %

**Q.** What about the “Static Dose” value (PSA; mean) of the same molecule?
**A.** 1920 mg/kg/24 h

**Q.** What about the “Stasis AUC/MIC” value (PSA; mouse, in vivo) of the same molecule?
**A.** 15

**Q.** And the “Stasis T > MIC” value (PSA; mouse, in vivo)?
**A.** 29%

**Q.** What about the “median total-drug plasma AUC:MIC ratio target” value (Enterobacteriaceae [8]; 1-log10 CFU reduction from baseline at 24 h) of the same molecule?
**A.** 41.6

**Q.** What about the “median total-drug plasma AUC:MIC ratio target” value (Enterobacteriaceae [8]; net bacterial stasis at 24 h) of the same molecule?
**A.** 19.1

**Q.** What about the MIC50 [9] of the same molecule?
**A.** > 1020 µg/mL

**Q.** What about the MIC90 (Enterobacteriaceae [10]) of the same molecule?
**A.** 16 mgL
